Literature values as cited in patent publication US20190021988A1, “ENHANCED TRANSDERMAL DELIVERY OF ACTIVE AGENTS” (priority 2016, published 2019).

Tested on: desmosome-induced tight junctions between corneocytes

TD-1: skin penetrating peptide with the amino acid sequence ACSSSPSKHCG, disclosed in WO2007/035474
time until cell gaps are restored after treatment (after treatment): 1 h
space between cells after topical application (change from about 30 nm, in 30 minutes from topical application): about 466 nm
